Values after ≈ are worked out from the molar mass of the structure shown. Values joined by “and” are separate entries in the source; they are usually repeats but may differ in a detail not shown here. Equal entries are not always repeated.
Key:
[1] = test system: Peptostreptococcus prevotii; assay: Agar dilution MIC, anaerobes; format: cell-based; settings: single isolates, anaerobic agar dilution
[2] = test system: Prevotella melaninogenica; assay: Agar dilution MIC, anaerobes; format: cell-based; settings: single isolates, anaerobic agar dilution
[3] = test system: Clostridium difficile; assay: Agar dilution MIC, anaerobes; format: cell-based; settings: single isolates, anaerobic agar dilution
[4] = test system: Prevotella intermedia; assay: Agar dilution MIC, anaerobes; format: cell-based; settings: single isolates, anaerobic agar dilution
[5] = test system: anaerobic bacteria; assay: Agar dilution method for anaerobic bacteria, summary; format: cell-based; settings: anaerobes
[6] = test system: Eubacterium leutum; assay: Agar dilution MIC, anaerobes; format: cell-based; settings: single isolates, anaerobic agar dilution
[7] = test system: Prevotella (Bacteroides) disiens; assay: Agar dilution MIC, anaerobes; format: cell-based; settings: single isolates, anaerobic agar dilution
[8] = test system: Peptostreptococcus asaccharolyticus; assay: Agar dilution MIC, anaerobes; format: cell-based; settings: single isolates, anaerobic agar dilution
[9] = test system: Peptostreptococcus magnum; assay: Agar dilution MIC, anaerobes; format: cell-based; settings: single isolates, anaerobic agar dilution
[10] = test system: Fusobacterium varium; assay: Agar dilution MIC, anaerobes; format: cell-based; settings: single isolates, anaerobic agar dilution
[11] = test system: P. acnes; assay: Agar dilution MIC, anaerobes; format: cell-based; settings: single isolates, anaerobic agar dilution
[12] = test system: Fusobacterium necrogenes; assay: Agar dilution MIC, anaerobes; format: cell-based; settings: single isolate, anaerobic agar dilution
[13] = test system: Mycobacterium tuberculosis; assay: microbe, parasite or virus in culture; settings: 504 h
[14] = test system: Mycobacterium tuberculosis; settings: geometric mean MIC
[15] = test system: Mycobacterium avium intracellulare; assay: Agar dilution method, mycobacteria; format: cell-based
[16] = test system: MRSA 562; assay: In vivo activity against MRSA 562 (ED50); parameters: species or system Methicillin Resistant Staphylococcus aureus; settings: PO; MRSA 562 infection
[17] = Changes in MIC under different conditions: broth MIC; format: cell-based; settings: strain not given
[18] = test system: MRSA 15187; assay: MIC, agar incorporation method; settings: agar incorporation
[19] = test system: MRSA 33; assay: MIC, agar incorporation method; settings: agar incorporation
[20] = test system: Strep. pyog. ATCC 19615; assay: MIC, agar incorporation method; settings: agar incorporation
[21] = test system: VRE 6A (Ent. faecium 6A); assay: MIC, agar incorporation method; settings: agar incorporation
[22] = test system: S. aureus ATCC 25923; assay: MIC, agar incorporation method; settings: agar incorporation
[23] = test system: S. pneum AB 34; assay: MIC, agar incorporation method; settings: agar incorporation
[24] = test system: MRSA 562; assay: MIC, agar incorporation method; settings: for MIC: MRSA 562, Table 5; for MIC MRSA 562: agar incorporation, Table 1
[25] = Changes in MIC under different conditions: agar MIC; format: cell-based; settings: strain not given
[26] = test system: Ent. faecalis ATCC 29212; assay: MIC, agar incorporation method; settings: agar incorporation
[27] = test system: Strep. pne. ATCC 6303; assay: MIC, agar incorporation method; settings: agar incorporation
[28] = test system: G +ve bacteria; assay: Summary of in vitro activity (MIC); settings: G +ve, Number 49
[29] = test system: S. pneumoniae; assay: Summary of in vitro activity (MIC); settings: S. pneumoniae, Number 19
[30] = test system: S. aureus; assay: Summary of in vitro activity (MIC); settings: S. aureus, Number 8
[31] = test system: E. faecalis; assay: Summary of in vitro activity (MIC); settings: E. faecalis, Number 7

Question: For `CC1(C)S[C@@H]2[C@H](NC(=O)[C@H](N)c3ccc(O)cc3)C(=O)N2[C@H]1C(=O)O` [Amox], which “MIC Peptostreptococcus prevotii” value [1] is on record?
Answer: 0.25 µg/mL (≈ 0.684 µM)

Question: What about the “MIC Prevotella melaninogenica” value [2] of the same molecule?
Answer: 64 µg/mL (≈ 175 µM)

Question: And the “MIC Clostridium difficile” value [3]?
Answer: 1 µg/mL and 2 µg/mL

Question: What about the “MIC Prevotella intermedia” value [4] of the same molecule?
Answer: 4 µg/mL (≈ 10.9 µM)

Question: And the “Geometric Mean” value [5]?
Answer: 1.366 µg/mL

Question: What about the “MIC Range” value [5] of the same molecule?
Answer: 0.062 to 256 µg/mL

Question: And the MIC50 ([5]; Wilkins Chalgren agar, 48 hour)?
Answer: 1 µg/mL (≈ 2.74 µM)

Question: And the MIC90 ([5]; Wilkins Chalgren agar, 48 hour)?
Answer: 256 µg/mL (≈ 701 µM)

Question: And the “MIC Eubacterium leutum” value [6]?
Answer: 1 µg/mL (≈ 2.74 µM)

Question: What about the “MIC Prevotella (Bacteroides) disiens” value [7] of the same molecule?
Answer: >128 µg/mL

Question: And the “MIC Peptostreptococcus asaccharolyticus” value [8]?
Answer: 0.25 µg/mL (≈ 0.684 µM)

Question: What about the “MIC Peptostreptococcus magnum” value [9] of the same molecule?
Answer: 0.25 µg/mL and 0.5 µg/mL

Question: What about the “MIC Fusobacterium varium” value [10] of the same molecule?
Answer: 1 µg/mL (≈ 2.74 µM)

Question: What about the “MIC P. acnes” value [11] of the same molecule?
Answer: 0.25 µg/mL (≈ 0.684 µM)

Question: And the “MIC Fusobacterium necrogenes” value [12]?
Answer: 0.5 µg/mL (≈ 1.37 µM)

Question: For `CC[C@H]1OC(=O)[C@H](C)[C@@H](O[C@H]2C[C@@](C)(OC)[C@@H](O)[C@H](C)O2)[C@H](C)[C@@H](O[C@@H]2O[C@H](C)C[C@H](N(C)C)[C@H]2O)[C@](C)(OC)C[C@@H](C)C(=O)[C@H](C)[C@@H](O)[C@]1(C)O` [Clarithromycin], which MIC50 [13] is on record?
Answer: 16 µg/mL (≈ 21.4 µM)

Question: And the MIC90 [13]?
Answer: 32 µg/mL (≈ 42.8 µM)

Question: What about the G.M. [14] of the same molecule?
Answer: 12.69 µg/mL

Question: And the MIC50 ([15]; Mycobacterium avium, 504 h, Middlebrook 7H10 agar, 21 days, read-out: MIC50)?
Answer: 1 µg/mL (≈ 1.34 µM)

Question: And the MIC90 ([15]; Mycobacterium avium, 504 h, Middlebrook 7H10 agar, 21 days, read-out: MIC90)?
Answer: 4 µg/mL (≈ 5.35 µM)

Question: What about the G.M. ([15]; geometric mean MIC) of the same molecule?
Answer: 1.554 µg/mL

Question: For `CC(=O)NC[C@H]1CN(c2ccc(N3CCN(C(=O)c4ccoc4)CC3)c(F)c2)C(=O)O1` [Compound No. 08, (S)-N[[3-[3-Fluoro-4-[N-1[4-(3-furoyl)]piperazinyl]phenyl]2-oxo-5-oxazolidinyl]-methyl]acetamide], which “ED50 (mg/kg body weight) PO” value [16] is on record?
Answer: 25 mg/kg body weight

Question: What about the “Broth MIC +50% Sheep serum” value [17] of the same molecule?
Answer: 4 µg/mL

Question: What about the “Broth MIC Normal MH broth” value [17] of the same molecule?
Answer: 2 µg/mL

Question: What about the “MIC MRSA 15187” value [18] of the same molecule?
Answer: 1 µg/mL (≈ 2.32 µM)

Question: And the “MIC MRSA 33” value [19]?
Answer: 1 µg/mL (≈ 2.32 µM)

Question: And the “MIC S. pyogenes 19615” value [20]?
Answer: 1 µg/mL (≈ 2.32 µM)

Question: And the “MIC VRE 6A” value [21]?
Answer: 1 µg/mL (≈ 2.32 µM)

Question: And the “MIC S. aureus 25923” value [22]?
Answer: 2 µg/mL (≈ 4.65 µM)

Question: What about the “MIC S. pneum AB 34” value [23] of the same molecule?
Answer: 4 µg/mL (≈ 9.29 µM)

Question: What about the “MIC” value [24] of the same molecule?
Answer: 1 µg/mL (≈ 2.32 µM)

Question: And the “MIC MRSA 562” value [24]?
Answer: 1 µg/mL (≈ 2.32 µM)

Question: And the “Agar MIC” value [25]?
Answer: 1 µg/mL

Question: And the “MIC E. faecalis 29212” value [26]?
Answer: 1 µg/mL (≈ 2.32 µM)

Question: What about the “MIC S. pneum 6303” value [27] of the same molecule?
Answer: 2 µg/mL (≈ 4.65 µM)

Question: Which “ED50 (mg/kg body weight) PO” value [16] does the source give for `CC(=O)NC[C@H]1CN(c2ccc(N3CCN(C(=O)c4ccc([N+](=O)[O-])s4)CC3)c(F)c2)C(=O)O1.Cl` [Compound No. 29, (S)-N[[3-[3-Fluoro-4-[N-1[4-(5-nitro-2-thienoyl)]piperazinyl]phenyl]2-oxo-5-oxazolidinyl]methyl]acetamide hydrochloride] here?
Answer: >25 mg/kg body weight

Question: What about the MIC50 [28] of the same molecule?
Answer: 1 µg/mL

Question: And the MIC90 [28]?
Answer: 1 µg/mL

Question: What about the MIC50 [29] of the same molecule?
Answer: 1 µg/mL

Question: What about the MIC90 [29] of the same molecule?
Answer: 1 µg/mL

Question: What about the “Broth MIC +50% Sheep serum” value [17] of the same molecule?
Answer: 0.5 µg/mL

Question: And the “Broth MIC Normal MH broth” value [17]?
Answer: 0.25 µg/mL

Question: What about the “MIC MRSA 15187” value [18] of the same molecule?
Answer: <0.1 µg/mL

Question: And the “MIC MRSA 33” value [19]?
Answer: <0.1 µg/mL

Question: What about the “MIC S. pyogenes 19615” value [20] of the same molecule?
Answer: 1 µg/mL

Question: What about the “MIC VRE 6A” value [21] of the same molecule?
Answer: 0.5 µg/mL

Question: And the MIC50 [30]?
Answer: 0.064 µg/mL

Question: What about the MIC90 [30] of the same molecule?
Answer: 0.25 µg/mL

Question: What about the “MIC S. aureus 25923” value [22] of the same molecule?
Answer: 0.25 µg/mL

Question: What about the “MIC S. pneum AB 34” value [23] of the same molecule?
Answer: 1 µg/mL

Question: And the “MIC” value [24]?
Answer: <0.1 µg/mL

Question: And the “MIC MRSA 562” value [24]?
Answer: <0.1 µg/mL

Question: And the “Agar MIC” value [25]?
Answer: <0.1 µg/mL

Question: And the “MIC E. faecalis 29212” value [26]?
Answer: 1 µg/mL

Question: What about the MIC50 [31] of the same molecule?
Answer: 1 µg/mL

Question: And the MIC90 [31]?
Answer: 1 µg/mL

Question: What about the “MIC S. pneum 6303” value [27] of the same molecule?
Answer: 1 µg/mL
